Data from patent publication US20240182531A1, “KV1.3 Blockers” (priority 2021, published 2024).
Several values for one entry are separate records, joined by “and”; a condition that tells them apart may be missing. Equal entries are not always repeated. Where two headings read alike, the source gives them in different places. Where a SMILES comes first, the peptide text is derived from it. Bridges are numbered along the chain shown (N, C = ends). [ ]: non-standard residue; d: D form. Nle = CCCC[C@H](N)C(=O)O

Experiments:
human Kv1.1 = molecular target: T1, human Kv1.1 (Homo sapiens, UniProt Q09470); experiment: cell-based; settings: ratio of patch clamp IC50 values
T1 construct: expressed in transfected cells; host or cells: CHO
T1 sequence (Q09470 whole entry): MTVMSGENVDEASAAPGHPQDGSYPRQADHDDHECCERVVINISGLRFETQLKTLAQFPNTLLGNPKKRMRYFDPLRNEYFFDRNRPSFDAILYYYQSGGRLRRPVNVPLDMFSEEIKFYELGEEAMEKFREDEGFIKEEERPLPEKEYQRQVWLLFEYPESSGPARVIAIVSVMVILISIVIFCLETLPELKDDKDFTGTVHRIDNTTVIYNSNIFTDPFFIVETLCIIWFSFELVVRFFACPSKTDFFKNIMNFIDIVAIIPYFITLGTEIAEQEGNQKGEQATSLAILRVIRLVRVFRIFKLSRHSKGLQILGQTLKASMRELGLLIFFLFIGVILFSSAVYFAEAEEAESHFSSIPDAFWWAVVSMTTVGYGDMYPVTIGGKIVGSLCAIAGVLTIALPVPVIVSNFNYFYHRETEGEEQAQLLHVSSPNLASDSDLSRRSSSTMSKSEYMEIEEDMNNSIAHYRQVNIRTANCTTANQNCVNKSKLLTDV

human Kv1.2 = molecular target: T2, human Kv1.2 (Homo sapiens, UniProt P16389); experiment: cell-based; settings: ratio of patch clamp IC50 values
T2 construct: expressed in transfected cells; host or cells: CHO
T2 sequence (P16389 whole entry): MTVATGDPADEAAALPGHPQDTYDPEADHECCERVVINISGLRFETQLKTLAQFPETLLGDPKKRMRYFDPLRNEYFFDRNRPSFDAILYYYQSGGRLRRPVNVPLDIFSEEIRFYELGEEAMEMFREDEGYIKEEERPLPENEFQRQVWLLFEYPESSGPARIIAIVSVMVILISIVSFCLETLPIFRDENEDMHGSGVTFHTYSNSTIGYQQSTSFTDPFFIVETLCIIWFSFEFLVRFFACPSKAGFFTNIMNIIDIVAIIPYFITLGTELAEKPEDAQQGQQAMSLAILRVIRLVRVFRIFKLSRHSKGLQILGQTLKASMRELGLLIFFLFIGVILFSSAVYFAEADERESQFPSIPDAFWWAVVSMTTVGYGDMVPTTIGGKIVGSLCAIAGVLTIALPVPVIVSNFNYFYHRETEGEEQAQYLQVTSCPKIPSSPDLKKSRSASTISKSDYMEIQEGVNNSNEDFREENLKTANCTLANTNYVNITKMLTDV

human Kv1.6 = molecular target: T3, human Kv1.6 (Homo sapiens, UniProt P17658); experiment: cell-based; settings: ratio of patch clamp IC50 values
T3 construct: expressed in transfected cells; host or cells: CHO
T3 sequence (P17658 whole entry): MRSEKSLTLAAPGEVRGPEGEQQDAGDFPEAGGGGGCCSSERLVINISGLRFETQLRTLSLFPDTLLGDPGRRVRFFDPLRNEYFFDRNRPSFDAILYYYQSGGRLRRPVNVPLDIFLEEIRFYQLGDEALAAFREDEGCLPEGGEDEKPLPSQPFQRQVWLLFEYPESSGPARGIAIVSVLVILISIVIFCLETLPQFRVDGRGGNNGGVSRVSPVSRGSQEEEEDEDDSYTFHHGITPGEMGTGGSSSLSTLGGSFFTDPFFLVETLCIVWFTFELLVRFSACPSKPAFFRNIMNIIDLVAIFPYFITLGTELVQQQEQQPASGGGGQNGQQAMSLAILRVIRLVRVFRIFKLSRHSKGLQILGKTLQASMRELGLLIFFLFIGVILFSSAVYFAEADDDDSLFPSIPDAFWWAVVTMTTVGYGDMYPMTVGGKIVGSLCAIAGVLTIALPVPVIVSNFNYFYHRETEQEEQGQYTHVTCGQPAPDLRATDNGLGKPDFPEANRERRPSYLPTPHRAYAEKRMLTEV

[1] = test system: Human peripheral blood mononuclear cells (PBMCs); format: cell-based; settings: geometric mean, at least 6 replicates, Example 5b; read-out: anti-CD3 PBMC/IL-2 IC50
Method: Human peripheral blood mononuclear cells (PBMCs) were used to assess the effects of Kv1.3 blocker reference compounds on T-cell activation as determined by IL-2 release after stimulation with anti-CD3.
(§1) Human PBMCs were obtained from Precision for Medicine (Frederick, MD). Cells from 5 donors were used. Plate-bound anti-CD3 was used to stimulate bulk T cells in the PBMC preparations. Briefly, 96-well plates were coated with anti-CD3 antibody for app. 16 hours at 5° C., using 50 μl of a 1 μg/ml anti-CD3 solution diluted in PBS. Thereafter the plates were washed twice.
Kv1.3 blockers were subsequently diluted in medium (RPMI 1640 with Glutamax-I containing, 10% v/v Fetal Bovine Serum, 1% v/v penicillin-streptomycin Solution) and added in a volume of 50 μl. The compounds indicated in Table 8b were used at concentrations ranging from 0.3 pM to 1000 nM (half log dilutions, starting concentrations varying).
Finally, 50.000 PBMCs in the same medium were added to each well in a volume of 50 μl, giving a final volume of 100 μl per well. The plates were incubated for 20-24 hours in a 37° C./5% CO2 incubator. After centrifugation of the plates, 25 μl supernatant was transferred to IL-2 detection plates (MSD Human IL-2 Tissue Culture Kit, cat #K151AHB-2) and IL-2 was measures as described by the manufacturer (Meso Scale Discovery, Rockville, Maryland, USA).
All values derive from at least 6 replicates.

Rat whole blood = Rat whole blood (Rattus norvegicus, UniProt P15384); format: cell-based; settings: IL-17A release, thapsigargin, 24 Hr, at least 2 replicates
Sequence of Rat whole blood (P15384 whole entry): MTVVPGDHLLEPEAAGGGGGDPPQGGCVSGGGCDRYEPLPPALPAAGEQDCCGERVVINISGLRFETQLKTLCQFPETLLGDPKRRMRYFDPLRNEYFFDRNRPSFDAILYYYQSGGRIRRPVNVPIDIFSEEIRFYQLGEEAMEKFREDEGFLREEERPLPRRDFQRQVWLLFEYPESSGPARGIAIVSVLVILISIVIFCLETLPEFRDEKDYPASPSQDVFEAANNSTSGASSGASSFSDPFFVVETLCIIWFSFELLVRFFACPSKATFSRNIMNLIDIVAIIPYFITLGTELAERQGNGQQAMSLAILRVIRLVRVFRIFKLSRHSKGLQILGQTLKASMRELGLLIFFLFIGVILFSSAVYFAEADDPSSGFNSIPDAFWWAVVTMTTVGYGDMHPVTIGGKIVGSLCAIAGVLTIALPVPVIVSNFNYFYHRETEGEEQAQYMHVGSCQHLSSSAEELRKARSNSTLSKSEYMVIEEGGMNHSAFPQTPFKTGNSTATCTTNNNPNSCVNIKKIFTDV

[2] = test system: KLH ear inflammation model in rats; format: in vivo, rat; settings: +/− SD
[3] = test system: Human peripheral blood mononuclear cells (PBMCs); format: cell-based; settings: geometric mean, at least 4 replicates, Example 5a; read-out: anti-CD3 PBMC/IL-2 IC50
Method: Human peripheral blood mononuclear cells (PBMCs) were used to assess the effects of Kv1.3 blocker reference compounds on T-cell activation as determined by IL-2 (cytokine) release after stimulation with anti-CD3.
as §1, with “2 hrs” for “app. 16 hours”, “37°” for “5°”, “μL” for “μl”, “0.5 μg/mL” for “1 μg/ml”, “1×PBS.” for “PBS.”
Kv1.3 blockers as shown in Table 8a were diluted in medium (RPMI 1640 with Glutamax-I containing 10% v/v Fetal Bovine Serum, 1% v/v penicillin-streptomycin solution) and added in a volume of 100 μL at concentrations ranging from 0.01 pM to 100 nM (tenfold dilutions). […] Finally, 1×10^5 PBMCs were added to each well in a volume of 100 μL, giving a final volume of 200 μL per well. The plates were incubated for 20-24 hours in a 37 °C/5% CO2 incubator. After centrifugation of the plates, 25 μl supernatant was transferred to IL-2 detection plates (MSD Human IL-2 Tissue Culture Kit, cat #K151AHB-2) and IL-2 was measures as described by the manufacturer (Meso Scale Discovery, Rockville, Maryland, USA).
Results are shown in Table 8a as geometric mean of IC50 values obtained from anti-CD3 stimulated human PBMC assays. All values derive from at least 4 replicates.

| Molecule | Selectivity ratio Kv1.1/Kv1.3 (human Kv1.1) | Selectivity ratio Kv1.2/Kv1.3 (human Kv1.2) | Selectivity ratio Kv1.6/Kv1.3 (human Kv1.6) | IC50 [1] [nM] | IC50 (Rat whole blood) [nM] | % inhibition of ear thickness (AUC of Δ ear thickness 0-48 hours) ([2]; 50 nmol/kg SC 24 hrs prior to KLH ear challenge) | % inhibition of ear thickness (AUC of Δ ear thickness 0-48 hours) ([2]; 70 nmol/kg SC 24 hrs prior to KLH ear challenge) | IC50 [3] [nM] |
| --- | --- | --- | --- | --- | --- | --- | --- | --- |
| CC[C@H](C)[C@@H]1NC(=O)[C@H](C)NC(=O)[C@H](CCCCN)NC(=O)[C@H](CC(C)C)NC(=O)[C@@H]2CSSC[C@@H](C(=O)N[C@@H](Cc3ccc(O)cc3)C(=O)N3CCC[C@H]3C(=O)N[C@@H](CCCNC(=N)N)C(=O)O)NC(=O)[C@H](CCCCN)NC(=O)[C@@H]3CSSC[C@H](NC(=O)[C@H](CCC(=O)O)NC(=O)[C@H](C(C)C)NC(=O)[C@H](CO)NC(=O)[C@H](C)NC(=O)[C@H](CO)NC(=O)[C@@H](NC(=O)[C@H](CCCNC(=N)N)NC(=O)[C@H](CCSC)NC(=O)[C@H](CC(=O)O)NC(=O)[C@H](CCSC)NC(=O)[C@@H](N)CCC(N)=O)CSSC[C@H](NC(=O)[C@H](CCCCN)NC(=O)CNC(=O)[C@H](Cc4ccccc4)NC(=O)[C@H]([C@@H](C)CC)NC(=O)[C@H](CO)NC(=O)CNC1=O)C(=O)N[C@@H](CCSC)C(=O)N[C@@H](CC(N)=O)C(=O)N[C@@H](CCCCN)C(=O)N[C@@H](CCCCN)C(=O)N3)C(=O)N[C@@H](CCCCN)C(=O)N[C@@H](CCC(N)=O)C(=O)N[C@@H](CCCCN)C(=O)N2 [compound 15] (H-QMDMRCSASVECKQKCLKAIGSIFGKCMNKKCKCYPR-OH; disulfide 6-27, 12-32, 16-34) | >7900 | 1364 | >7900 | 0.09 | 0.17 |  |  |  |
| CC[C@H](C)[C@@H]1NC(=O)[C@H](C)NC(=O)[C@H](CCCCN)NC(=O)[C@H](CC(C)C)NC(=O)[C@@H]2CSSC[C@@H](C(=O)N[C@@H](Cc3ccc(O)cc3)C(=O)N3CCC[C@H]3C(=O)N[C@@H](CCCNC(=N)N)C(=O)O)NC(=O)[C@H](CCCCN)NC(=O)[C@@H]3CSSC[C@H](NC(=O)[C@H](CCC(=O)O)NC(=O)[C@H](C(C)C)NC(=O)[C@H](CO)NC(=O)[C@H](C)NC(=O)[C@H](CO)NC(=O)[C@@H](NC(=O)[C@H](CCCNC(=N)N)NC(=O)[C@H](CCSC)NC(=O)[C@H](CC(=O)O)NC(=O)[C@H](CCSC)NC(=O)[C@@H](N)CC(N)=O)CSSC[C@H](NC(=O)[C@H](CCCCN)NC(=O)CNC(=O)[C@H](Cc4ccccc4)NC(=O)[C@H]([C@@H](C)CC)NC(=O)[C@H](CO)NC(=O)CNC1=O)C(=O)N[C@@H](CCSC)C(=O)N[C@@H](CC(N)=O)C(=O)N[C@@H](CCCCN)C(=O)N[C@@H](CCCCN)C(=O)N3)C(=O)N[C@@H](CCCCN)C(=O)N[C@@H](CCC(N)=O)C(=O)N[C@@H](CCCCN)C(=O)N2 [compound 17] (H-NMDMRCSASVECKQKCLKAIGSIFGKCMNKKCKCYPR-OH; disulfide 6-27, 12-32, 16-34) | >11300 | 1540 | >11300 | 0.06 | 1 | 37.3 (+/−13.8) % | 38.8 (+/−9.7) % and 25.0 (+/−12.5) % |  |
| CC[C@H](C)[C@@H]1NC(=O)[C@H](C)NC(=O)[C@H](CC(=O)O)NC(=O)[C@H](CC(C)C)NC(=O)[C@@H]2CSSC[C@@H](C(=O)N[C@@H](Cc3ccc(O)cc3)C(=O)N3CCC[C@H]3C(=O)N[C@@H](CCCNC(=N)N)C(N)=O)NC(=O)[C@H](CCCCN)NC(=O)[C@@H]3CSSC[C@H](NC(=O)[C@H](CCC(=O)O)NC(=O)[C@H](C(C)C)NC(=O)[C@H](CO)NC(=O)[C@H](C)NC(=O)[C@H](CO)NC(=O)[C@@H](NC(=O)[C@H](CCCNC(=N)N)NC(=O)[C@H](CCSC)NC(=O)[C@H](CC(=O)O)NC(=O)[C@H](CCSC)NC(=O)[C@@H](N)CC(N)=O)CSSC[C@H](NC(=O)[C@H](CCCCN)NC(=O)CNC(=O)[C@H](Cc4ccccc4)NC(=O)[C@H]([C@@H](C)CC)NC(=O)[C@H](CO)NC(=O)CNC1=O)C(=O)N[C@@H](CCSC)C(=O)N[C@@H](CC(N)=O)C(=O)N[C@@H](CCCCN)C(=O)N[C@@H](CCCCN)C(=O)N3)C(=O)N[C@@H](CCCCN)C(=O)N[C@@H](CCC(N)=O)C(=O)N[C@@H](CCCCN)C(=O)N2 [compound 25] (H-NMDMRCSASVECKQKCLDAIGSIFGKCMNKKCKCYPR-NH2; disulfide 6-27, 12-32, 16-34) | >14300 | 471 | 12045 |  | 1.2 |  |  | 0.1 |
| CC[C@H](C)[C@@H]1NC(=O)[C@H](C)NC(=O)[C@H](CCCCN)NC(=O)[C@H](CC(C)C)NC(=O)[C@@H]2CSSC[C@@H](C(=O)N[C@@H](Cc3ccc(O)cc3)C(=O)N3CCC[C@H]3C(=O)N[C@@H](CCCNC(=N)N)C(N)=O)NC(=O)[C@H](CCCCN)NC(=O)[C@@H]3CSSC[C@H](NC(=O)[C@H](CCC(=O)O)NC(=O)[C@H](C(C)C)NC(=O)[C@H](CO)NC(=O)[C@H](C)NC(=O)[C@H](CO)NC(=O)[C@@H](NC(=O)[C@H](CCCNC(=N)N)NC(=O)[C@H](CCSC)NC(=O)[C@H](CC(=O)O)NC(=O)[C@H](CCSC)NC(=O)[C@@H](N)CC(N)=O)CSSC[C@H](NC(=O)[C@H](CCCCN)NC(=O)CNC(=O)[C@H](Cc4ccccc4)NC(=O)[C@H](CCCNC(=N)N)NC(=O)[C@H](CO)NC(=O)CNC1=O)C(=O)N[C@@H](CCSC)C(=O)N[C@@H](CC(N)=O)C(=O)N[C@@H](CCCCN)C(=O)N[C@@H](CCCCN)C(=O)N3)C(=O)N[C@@H](CCCCN)C(=O)N[C@@H](CCC(N)=O)C(=O)N[C@@H](CCCCN)C(=O)N2 [compound 39] (H-NMDMRCSASVECKQKCLKAIGSRFGKCMNKKCKCYPR-NH2; disulfide 6-27, 12-32, 16-34) | >15000 | 88 | 963 |  | 2.5 |  |  | 0.1 |
| CCCC[C@@H]1NC(=O)[C@@H]2CSSC[C@H](NC(=O)[C@H](CCCNC(=N)N)NC(=O)[C@H](CCCC)NC(=O)[C@H](CC(=O)O)NC(=O)[C@H](CCCC)NC(=O)[C@@H](N)CC(N)=O)C(=O)N[C@@H](CO)C(=O)N[C@@H](C)C(=O)N[C@@H](CO)C(=O)N[C@@H](C(C)C)C(=O)N[C@@H](CCC(=O)O)C(=O)N[C@H]3CSSC[C@H](NC(=O)[C@H](CCCCN)NC(=O)[C@H](CCCCN)NC(=O)[C@H](CC(N)=O)NC1=O)C(=O)N[C@@H](CCCCN)C(=O)N[C@H](C(=O)N[C@@H](Cc1ccc(O)cc1)C(=O)N1CCC[C@H]1C(=O)N[C@@H](CCCNC(=N)N)C(N)=O)CSSC[C@H](NC(=O)[C@H](CO)NC(=O)[C@H](CCC(N)=O)NC(=O)[C@H](CCCCN)NC3=O)C(=O)N[C@@H](CC(C)C)C(=O)N[C@@H](CCCCN)C(=O)N[C@@H](C)C(=O)N[C@@H]([C@@H](C)CC)C(=O)NCC(=O)N[C@@H](CO)C(=O)N[C@@H]([C@@H](C)CC)C(=O)N[C@@H](Cc1ccccc1)C(=O)NCC(=O)N[C@@H](CCCCN)C(=O)N2 [compound 52] (H-N[Nle]D[Nle]RCSASVECKQSCLKAIGSIFGKC[Nle]NKKCKCYPR-NH2; disulfide 6-27, 12-32, 16-34) | >8200 | >8200 | >8200 | 0.07 | 0.63 |  |  |  |
| H-NMDMRCSASVECKQKCLKAIGSIFGKCMNKKCKCYPRRRTA-NH2 (disulfide 6-27, 12-32, 16-34) [compound 28] | 4280 | 191 | 1472 | 0.06 | 0.57 |  |  |  |
